Data: patent publication US10202351B2, “Pyrazolyl derivatives as pest control agents” (BAYER ANIMAL HEALTH GMBH, priority 2015, dated 2019)

What was measured:
Assay type in all cases: in vivo
Boophilus microplus = Boophilus microplus injection test; details: application rate 20 μg/animal, after 7 days, laying of fertile eggs
Description: Solvent: dimethyl sulfoxide […] The animals are transferred into dishes and kept in a climate-controlled room. Efficacy is assessed after 7 days by laying of fertile eggs. Eggs which are not visibly fertile are stored in a climate-controlled cabinet until the larvae hatch after about 42 days.

Ctenocephalides felis = Ctenocephalides felis oral test; details: application rate 100 ppm in citrated cattle blood, kill after 2 days
Source text: Solvent: dimethyl sulfoxide […] Dilution with citrated cattle blood gives the desired concentration. About 20 unfed adult cat fleas (Ctenocephalides felis) are placed into a chamber which is closed at the top and bottom with gauze. A metal cylinder whose bottom end is closed with parafilm is placed onto the chamber. The cylinder contains the blood/active ingredient formulation, which can be imbibed by the fleas through the parafilm membrane.

Phaedon cochleariae = Phaedon cochleariae spray test; details: application rate 100 g/ha, larvae on Chinese cabbage leaf discs, after 7 days
Description: (§1) Solvent: 78.0 parts by weight of acetone • • 1.5 parts by weight of dimethylformamide Emulsifier: alkylaryl polyglycol ether […] To produce further test concentrations, the formulation is diluted with emulsifier-containing water. Discs of Chinese cabbage leaves (Brassica pekinensis) are sprayed with an active ingredient formulation of the desired concentration and, after drying, populated with larvae of the mustard beetle (Phaedon cochleariae).

Spodoptera frugiperda = Spodoptera frugiperda spray test; details: application rate 100 g/ha, caterpillars on maize leaf discs, after 7 days
Description: as §1, with “Leaf discs” for “Discs”, “maize (Zea mays)” for “Chinese cabbage leaves (Brassica pekinensis)”, “compound” for “ingredient”, “caterpillars” for “larvae”, “armyworm (Spodoptera frugiperda).” for “mustard beetle (Phaedon cochleariae).”

Lucilia cuprina = Lucilia cuprina test; details: application rate 100 ppm, L1 larvae, kill after 2 days
Description: Solvent: dimethyl sulfoxide
To produce a suitable preparation of active compound, 10 mg of active compound are mixed with 0.5 ml of dimethyl sulfoxide, and the concentrate is diluted with water to the desired concentration.
About 20 L1 larvae of the Australian sheep blowfly (Lucilia cuprina) are transferred into a test vessel containing minced horsemeat and the active compound formulation of the desired concentration.
After 2 days, the kill in % is determined. 100% means that all the larvae have been killed; 0% means that no larvae have been killed.

Row | Compound | efficacy (Boophilus microplus) | efficacy (Ctenocephalides felis) | efficacy (Phaedon cochleariae) | efficacy (Spodoptera frugiperda) | efficacy (Lucilia cuprina)
1 | COc1cc(C(=O)Nc2cccc(-c3cnn(-c4c(C)cc(C(F)(C(F)(F)F)C(F)(F)F)cc4C(F)(F)F)c3)c2F)ccc1F [Example 71] | 100% | 100% | 100% | 100% | –
2 | COc1ccc(C(=O)Nc2cc(-c3cnn(-c4c(C)cc(C(F)(C(F)(F)F)C(F)(F)F)cc4C(F)(F)F)c3)ccc2F)cc1F [Example 55] | 100% | 100% | 100% | – | 80%
3 | COc1cc(C(=O)Nc2ccc(F)c(-c3cnn(-c4c(C)cc(C(F)(C(F)(F)F)C(F)(F)F)cc4C(F)(F)F)c3)c2)ccc1F [Example 2-5] | 100% | – | – | – | –
4 | Cc1cc(C(F)(C(F)(F)F)C(F)(F)F)cc(C(F)(F)F)c1-n1cc(-c2cccc(NC(=O)c3ccsc3)c2F)cn1 [Example 75] | 100% | 95% | – | – | 80%
5 | COc1cc(C(=O)Nc2cc(-c3cnn(-c4c(C)cc(C(F)(C(F)(F)F)C(F)(F)F)cc4C(F)(F)F)c3)ccc2F)ccc1C [Example 47] | 100% | 80% | – | – | –
6 | Cc1cc(C(F)(C(F)(F)F)C(F)(F)F)cc(C)c1-n1cc(-c2ccc(N(C)C)c(NC(=O)c3ccc(F)cc3)c2)cn1 [Example 21] | 100% | 100% | – | 100% | –
7 | COc1cc(C(=O)Nc2cc(-c3cnn(-c4c(C)cc(C(F)(C(F)(F)F)C(F)(F)F)cc4C(F)(F)F)c3)ccc2F)ccc1C#N [Example 35] | – | – | 100% | 100% | –
8 | COc1cc(C(=O)Nc2cccc(-c3cnn(-c4c(C)cc(C(F)(C(F)(F)F)C(F)(F)F)cc4C(F)(F)F)c3)c2F)ccc1C#N [Example 74] | 100% | – | 100% | 100% | 100%
9 | CCOc1cc(C(=O)Nc2cc(-c3cnn(-c4c(C)cc(C(F)(C(F)(F)F)C(F)(F)F)cc4C(F)(F)F)c3)ccc2F)ccc1F [Example 29] | 100% | 80% | – | – | –
10 | COc1cc(C(=O)Nc2cc(-c3cnn(-c4c(C)cc(C(F)(C(F)(F)F)C(F)(F)F)cc4C(F)(F)F)c3)ccc2F)ccc1F [Example 28] | – | – | 100% | – | –
11 | Cc1cc(C(F)(C(F)(F)F)C(F)(F)F)cc(C(F)(F)F)c1-n1cc(-c2cc(NC(=O)c3ccsc3)ccc2F)cn1 [Example 2-9] | 100% | 95% | – | – | 100%
12 | Cc1cc(C(F)(C(F)(F)F)C(F)(F)F)cc(C(F)(F)F)c1-n1cc(-c2cc(NC(=O)c3ccccc3)ccc2F)cn1 [Example 2-10] | 100% | – | – | – | –
13 | COc1cc(C(=O)Nc2ccc(F)c(-c3cnn(-c4c(C)cc(C(F)(C(F)(F)F)C(F)(F)F)cc4C(F)(F)F)c3)c2)ccc1C#N [Example 2-8] | 100% | – | 83% | – | 90%
14 | COc1ccc(C(=O)Nc2ccc(F)c(-c3cnn(-c4c(C)cc(C(F)(C(F)(F)F)C(F)(F)F)cc4C(F)(F)F)c3)c2)cc1F [Example 2-6] | 80% | – | – | – | –
15 | COc1ccc(C(=O)Nc2cccc(-c3cnn(-c4c(C)cc(C(F)(C(F)(F)F)C(F)(F)F)cc4C(F)(F)F)c3)c2F)cc1F [Example 72] | 100% | 95% | 100% | – | 100%
16 | Cc1ncc(-c2cnn(-c3c(Cl)cc(C(F)(C(F)(F)F)C(F)(F)F)cc3Cl)c2)cc1NC(=O)c1ccncc1 [Example 18] | – | – | 83% | 100% | –
17 | Cc1cc(C(F)(C(F)(F)F)C(F)(F)F)cc(C(F)(F)F)c1-n1cc(-c2ccc(F)c(NC(=O)c3ccc(Cl)c(F)c3)c2)cn1 [Example 56] | 100% | 100% | – | – | 100%
18 | COc1cc(C(=O)Nc2c(F)ccc(-c3cnn(-c4c(C)cc(C(F)(C(F)(F)F)C(F)(F)F)cc4C(F)(F)F)c3)c2F)ccc1F [Example 27] | 100% | 100% | – | – | 90%
